Measurements taken from patent US8426448B2, “1,5-diphenyl-pyrrolidin-2-one compounds as CB-1 ligands” (Eli Lilly and Company, priority 2008, dated 2013).
Structures can show the parent of a compound that is named as a salt.

Columns and labels:
CYP3A = assay: Human CYP fingerprinting, ketoconazole inhibition; type: in vitro ADME; conditions: 4 μM, human liver microsomes, 30 min, 10 μM ketoconazole
Method: (§1) CYP fingerprinting is well established technique and is used as an indication of potential risk of drug-drug interactions in the pharmaceutical sciences. Compounds of the present invention may be assayed by well known methods, essentially as follows: Compounds are incubated at 37° C. at a final concentration of 4 μM with pooled, mixed gender, human liver microsomes and 1 mM NADPH (Nicotine Adenine Dinucleotide Phosphate) (final conc.) for 0 and 30 min. without any CYP inhibitor and with each CYP inhibitor in separate incubations for 30 min. Each inhibitor is specific for an individual cytochrome P450. The specific inhibitors used for CYPs 2C9, 2D6 and 3A were sulfaphenazole, quinidine and ketoconazole, respectively. Ketoconazole (CYP3A) is made up at 25 mM in DMSO and then diluted in buffer to a final concentration of 10 μM. Quinidine (CYP2D6) is made up at 5 mM in 50/50 acetonitrile/water and then diluted in buffer to a final concentration of 10 μM. Sulfaphenazole (CYP2C9) is made up at 100 mM in DMSO and then diluted in buffer to a final concentration of 5 μM. Samples are analyzed by LC-MS in positive or negative electrospray mode using a Waters Acquity Ultra Performance LC coupled to a MicroMass Q-T of-2 mass spectrometer.
(§2) Data are analyzed using MetaboLynx™ version 4.1. […]

CYP2C9 = biological target: T1, CYP2C9 (Homo sapiens, UniProt P11712); assay: Human CYP fingerprinting, sulfaphenazole inhibition; type: in vitro ADME; conditions: 4 μM, human liver microsomes, 30 min, 5 μM sulfaphenazole
T1 construct: pooled, mixed gender, human liver microsomes; from tissue; host or cells: pooled, mixed gender human liver microsomes
T1 sequence (P11712 whole entry): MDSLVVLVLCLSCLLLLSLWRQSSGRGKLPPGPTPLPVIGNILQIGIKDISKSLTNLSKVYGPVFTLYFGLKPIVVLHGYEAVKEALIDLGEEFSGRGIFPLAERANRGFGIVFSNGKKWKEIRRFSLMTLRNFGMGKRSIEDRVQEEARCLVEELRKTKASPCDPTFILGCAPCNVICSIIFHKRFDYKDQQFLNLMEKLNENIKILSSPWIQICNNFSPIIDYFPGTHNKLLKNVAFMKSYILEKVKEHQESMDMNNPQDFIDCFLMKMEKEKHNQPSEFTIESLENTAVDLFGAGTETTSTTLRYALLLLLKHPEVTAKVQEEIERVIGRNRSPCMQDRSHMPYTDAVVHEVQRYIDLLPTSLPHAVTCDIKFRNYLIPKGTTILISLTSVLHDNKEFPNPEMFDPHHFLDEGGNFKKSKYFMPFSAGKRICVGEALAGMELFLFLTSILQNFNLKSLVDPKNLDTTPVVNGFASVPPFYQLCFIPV
Method: as §1, §2

Dog oral bioavailability = type: in vivo; conditions: plasma; fasted female beagle dog; IV 0.25 mg/kg, PO 1 mg/kg; mean±s.d, n=2; based on AUC0-∞
Method: Cohorts of three or four 250-450 gram male Sprague-Dawley rats or approximately 10 kg Beagle dogs (female or male) are used. […] Dogs are administered i.v. by cannulated cephalic vein and blood collections are by jugular vein. Animals are first dosed at 0.25 mg/kg i.v. and blood samples (0.2 mL) are then collected using EDTA as an anticoagulant at 0.0830, 0.25, 0.50, 1, 2, 4, 8, 12, 24, 48, 72, 96, and 120 hours. Next after at least two days and after 18-24 hours fasting, the animals are dosed at 1.0 mg/kg by oral gavage. During the course of a study the total of blood (ml) collected is not to exceed 1% of total body weight in grams. Should larger blood volumes be required, the sampled blood volume is replace with heparinized whole blood from a donor animal. When using a cross-over study design, rats receive a volume of heparinized whole blood following the final sample of each study day approximately equal to that removed during study.
Compound plasma concentrations are measured by LC/MS/MS assays. Data are then analyzed using standard non-compartmental pharmacokinetic analysis. Oral bioavailability is calculated as: (AUC0-infinity,oral/AUC0-infinity,i.v.)×(Dose,i.v./Dose,oral)×100%

CC(C)(N[C@@H]1C[C@H](c2cccc(C(F)(F)F)c2)N(c2ccc(OC(F)(F)F)cc2)C1=O)c1cccc(C(F)(F)F)n1 [28 HCl salt, (3R,5R)-3-[1-methyl-1-(6-trifluoromethyl-pyridin-2-yl)-ethylamino]-1-(4-trifluoromethoxy-phenyl)-5-(3-trifluoromethyl-phenyl)-pyrrolidin-2-one]
Risk of Drug Drug Interaction (DDI) CYP3A (CYP3A): Low
Risk of Drug Drug Interaction (DDI) CYP2C9 (CYP2C9): low (a reduction in metabolite peak area of less than 30% (relative to the uninhibited control incubation) receives a designation of low risk of Drug Drug Interaction (DDI))
bioavailability (Dog oral bioavailability): 32 ± 18%
